# In article PMC9861858, “Stereoselective Synthesis and Antiproliferative Activities of Tetrafunctional Diterpene Steviol Derivatives” (International Journal of Molecular Sciences, 2023):
# Key:
# HeLa cells = assay: MTT antiproliferative assay, HeLa; assay type: cell-based, human; conditions: Homo sapiens, HeLa, 72 h, values <20% considered negligible, read-out: Growth inhibition (%) ± SEM, HeLa
# Protocol: (§1) The in vitro antiproliferative activities of the synthesised aminotriols 5–18 against a panel of different human cancer cell lines of gynecological origin, including cervical (SiHA and HeLa), breast (MCF7 and MDA-MB-231), ovary (A2780) cancers and NIH/3T3 healthy fibroblasts, were assayed by the MTT method. Cisplatin, a clinically applied anticancer agent was used as a reference compound, and the results are summarised in Figure 3 and Table S1 in the Supplementary Materials.
# (§2) The growth-inhibitory effects of the presented terpenes were determined by a standard MTT [3-(4,5-dimethylthiazol2-yl)-2,5-diphenyltetrazolium bromide] assay against […] human cancer cell lines (cervical cancer HeLa and SiHa cell lines, breast cancer MCF-7 and MDA-MB-231 and ovarian cancer A2780). Murine embryonal fibroblast cells (NIH/3T3) were used to determine selectivity. All cell lines were purchased from the European Collection of Cell Cultures (Salisbury, UK). The cells were cultivated in Eagle’s minimal essential medium supplemented with 10% fetal bovine serum, 1% non-essential amino acids, and 1% Antibiotic-Antimycotic complex (penicillin, streptomycin, amphotericin B) at 37 °C in a humidified atmosphere containing 5% CO2. All media and supplements were purchased from Lonza Group Ltd. (Basel, Switzerland). Cancer cells were seeded into 96-well plates (5000 cells/well) after an overnight incubation, and the test compounds were added at two different concentrations (10 μM and 30 μM) and incubated for another 72 h under cell-culturing conditions. Finally, 20 μL of a 5 mg/mL MTT solution was added to each well, and the contents were incubated for a further 4 h. The medium was removed, and the precipitated formazan crystals were dissolved in DMSO by shaking at 37 °C for 60 min. The absorbance was measured at 545 nm by using a microplate reader (SPECTROStar Nano, BMG Labtech, Offenburg, Germany). Clinically utilised anticancer agent cisplatin (Ebewe GmbH, Unterach, Austria) was included as a reference molecule. Calculations were performed using the GraphPad Prism 9 software (GraphPad Software Inc., San Diego, CA, USA).
# SiHa cells = assay: MTT antiproliferative assay, SiHa; assay type: cell-based, human; conditions: Homo sapiens, SiHa, 72 h, values <20% considered negligible, read-out: Growth inhibition (%) ± SEM, SiHa
# Protocol: as §1, §2
# MDA-MB-231 cells = assay: MTT antiproliferative assay, MDA-MB-231; assay type: cell-based, human; conditions: for inhibition at 10 µM / inhibition at 30 µM: Homo sapiens, 72 h, values <20% considered negligible, read-out: Growth inhibition (%) ± SEM, MDA-MB-231; for inhibition at 10 µM: MDA-MB-231, 10 μM; for inhibition at 30 µM: MDA-MB-231, 30 μM; for Antiproliferative effect / selectivity on MDA-MB-231, in words: 10 and 30 μM
# Protocol: as §1, §2
# MCF-7 cells = assay: MTT antiproliferative assay, MCF-7; assay type: cell-based, human; conditions: for inhibition at 10 µM / inhibition at 30 µM: Homo sapiens, 72 h, values <20% considered negligible, read-out: Growth inhibition (%) ± SEM, MCF-7; for inhibition at 10 µM: MCF7, 10 μM; for inhibition at 30 µM: MCF7, 30 μM; for Antiproliferative effect / selectivity on MCF-7, in words: 10 and 30 μM
# Protocol: as §1, §2
# [1] = Intestinal-specific parallel artificial membrane permeability assay (PAMPA-GI); assay type: in vitro ADME; conditions: gradient pH system (pH donor 6.5 → pH acceptor 7.4) after 4 h, at 37 °C, mean ± S.E.M, n = 3; for Papp at 4 h, 500 µM: PAMPA, read-out: PAMPA-GI Pe
# Protocol: (§3) Filtrates and calibration solutions (5–500 μ M) of the kinetic solubility study and starting donor and acceptor solutions of the PAMPA-GI study were investigated by HPLC-DAD-MS. LC-MS analysis was performed using a Waters 2795 HPLC with a Waters 2487 DAD detector coupled with a Micromass Quattro Ultima TMPt quadrupol mass spectrometer equipped with an ESI source. Measurements were performed on a Waters XSelect C18 (150 × 4.6 mm; 3.5 μm) column with a […] eluent flow rate and the temperature set at 40 °C. The composition of eluent A was MilliQ water with 0.1% formic acid, and that of eluent B was an acetonitrile and MilliQ water mixture (95:5, v/v), also with 0.1% formic acid. The following linear gradient program was used: 0–6 min, 10–100% B; this was held for 3 min, then from 9.01 min on, back to the starting composition of 10% B–90% A. The injection volume was 10 μL for each sample. Chromatographic profiles were registered at dual wavelength, 220 and 240 nm. The mass spectrometer was used in negative ion mode for samples 2, 3 and 4b, and in positive ion mode for other samples. The operating parameters of the MS were: Mass range of m/z 150–700. Nitrogen gas flow rate was 350 L/h, temperature of 350 °C and pressure of 6 bar. The quadrupol temperature was 120 °C, and the capillary voltage was 2.5 kV. Fragmentor’s voltage of 60 V.
# (§4) Intestinal (GI) permeability was determined by using an intestinal-specific parallel artificial membrane permeability assay (PAMPA-GI [36]]). […] All solutions were filtered by MultiScreen HTS Vacuum Manifold (Merck Ltd., Budapest, Hungary) after the incubation period. The target concentration was 500 μM for every sample investigated. The intestinal-specific effective permeability of the samples was determined by PAMPA-GI. To prepare starting solutions for a 96-well donor plate, 15 μLs of the 10 mM DMSO stock solution of investigation compounds and 285 μL pH 6.5 phosphate buffer solution were mixed. These solutions were left in a shaking incubator (300 rpm) at 25 °C for 1 h. Meanwhile, a 96-well acceptor plate was filled with 300 μL of pH 7.4 PBS buffer solution containing 5% DMSO. The intestinal-specific artificial membrane was prepared the following way: the hydrophobic filter material of the donor plate was coated with a mixture of phosphatidylcholine/cholesterol = 2:1 (5 μL, 4 % (w/v) in dodecane). After that, all donor wells were filled with 150 μL of the starting donor solutions, and they were carefully placed on the acceptor plate and incubated at 37 °C for 4 h. After the end of the incubation period the donor and acceptor plates were separated carefully. A total of 150 μL of the donor, acceptor and the starting donor solutions were sampled and analysed with HPLC-DAD-MS. The effective permeability and membrane retention of drugs were calculated using the following equations: Pe=−2.303/A·(t−τss)·1/1+rv·lg[−rv+(1+rv/1−MR)·]CD(t)/CD(0) MR=1−CD(t)/CD(0)−VA·CA(t)/VD·CD(0) where Pe is the effective permeability coefficient (cm/s), A is the filter area (0.3 cm^2), VD and VA are the volumes in the donor (0.15 cm^3) and acceptor phase (0.3 cm^3), t is the incubation time (s), τSS is the time to reach steady-state (s), CD(t) is the concentration of the compound in the donor phase at time point t (mol/cm^3), CD(0) is the concentration of the compound in the donor phase at time point zero (mol/cm^3), rv is the aqueous compartment volume ratio (VD/VA), MR is the membrane retention factor.
# NIH/3T3 fibroblasts = assay: MTT assay on fibroblasts (selectivity); assay type: cell-based, murine; conditions: Mus musculus, 72 h, values <20% considered negligible, read-out: Growth inhibition (%) ± SEM, NIH/3T3; for inhibition at 10 µM: NIH3T3, 10 μM; for inhibition at 30 µM: NIH3T3, 30 μM
# Protocol: as §1, §2
# [2] = Kinetic aqueous solubility; assay type: physicochemical; conditions: phosphate buffered saline with 5% DMSO, aqueous with cosolvent or surfactant or cyclodextrin, kinetic from dmso stock; after 2 h, at 37 °C in PBS, pH 7.4, 5% DMSO; target concentration 500 μM; mean ± S.E.M, n = 3
# Protocol: as §3, §4
# A2780 cells = assay: MTT antiproliferative assay, A2780; assay type: cell-based, human; conditions: for inhibition at 10 µM / inhibition at 30 µM: Homo sapiens, 72 h, values <20% considered negligible, read-out: Growth inhibition (%) ± SEM, A2780; for inhibition at 10 µM: A2780, 10 μM; for inhibition at 30 µM: A2780, 30 μM; for Antiproliferative effect on A2780, in words: 10 and 30 μM
# Protocol: as §1, §2
# [3] = test system: human cancer cell lines (HeLa, SiHa, A2780, MCF-7 and MDA-MB-231); assay: MTT antiproliferative assay, whole cancer cell panel; assay type: cell-based; conditions: 10 and 30 μM
# Protocol: as §1, §2
melting point,"Papp at 4 h, 500 µM [1]",PAMPA-GI MR (membrane retention) [1],solubility kinetic at 2 h [2],Compound,inhibition at 10 µM (HeLa cells),inhibition at 30 µM (HeLa cells),inhibition at 10 µM (SiHa cells),inhibition at 30 µM (SiHa cells),inhibition at 10 µM (MDA-MB-231 cells),inhibition at 30 µM (MDA-MB-231 cells),inhibition at 10 µM (MCF-7 cells),inhibition at 30 µM (MCF-7 cells),inhibition at 10 µM (NIH/3T3 fibroblasts),inhibition at 30 µM (NIH/3T3 fibroblasts),inhibition at 10 µM (A2780 cells),inhibition at 30 µM (A2780 cells),"Antiproliferative effect / selectivity on MDA-MB-231, in words (MDA-MB-231 cells)","Antiproliferative effect / selectivity on MCF-7, in words (MCF-7 cells)","Antiproliferative effect on A2780, in words (A2780 cells)","Antiproliferative activity on the cancer cell panel, in words [3]"
63 to 67 °C,0.48 ± 0.05 ×10⁻⁶ cm/s,22.4 ± 2.0%,145 ± 14.1 µM,"COC(=O)[C@]1(C)CCC[C@@]2(C)[C@@H]3CCC4(O)C[C@@]3(CC[C@@H]21)[C@@H](O)[C@]4(O)CN[C@H](C)c1ccc(F)cc1 [Compound 11, (4R,4aS,6aR,7R,8R,11aS,11bS)-Methyl 8-((((R)-1-(4-Fluorophenyl)ethyl)amino)methyl)-7,8,9-trihydroxy-4,11b-dimethyltetradecahydro-6a,9-methanocyclohepta[a]naphthalene-4-carboxylate]",95.4 ± 1.08%,95.8 ± 1.11%,93.66 ± 0.85%,94.59 ± 0.49%,93.66 ± 0.59%,94.31 ± 0.51%,96.23 ± 0.59%,96.27 ± 0.65%,44.4 ± 0.7%,90.5 ± 1.16%,97.06 ± 0.3%,97.51 ± 0.22%,,,,
157 to 161 °C,0.58 ± 0.01 ×10⁻⁶ cm/s,42.6 ± 3.9%,131 ± 2.2 µM,"COC(=O)[C@]1(C)CCC[C@@]2(C)C3CC[C@]4(O)C[C@@]3(CCC21)[C@@H](O)[C@]4(O)CN[C@@H](C)c1ccccc1 (stereo partly drawn) [Compound 8, (4R,6aR,7R,8R,9S,11bS)-Methyl 7,8,9-Trihydroxy-4,11b-dimethyl-8-((((S)-1-phenylethyl)amino)methyl)tetradecahydro-6a,9-methanocyclohepta[a]naphthalene-4-carboxylate]",< 20%,96.19 ± 0.25%,< 20%,95.09 ± 0.69%,84.3 ± 2.78%,95.62 ± 0.92%,74 ± 2.14%,96.04 ± 0.32%,58.8 ± 1.41%,103.2 ± 0.33%,59.9 ± 3.03%,97.45 ± 0.36%,noteworthy selectivity,slightly weaker action,slightly weaker action,
84 to 87 °C,0.64 ± 0.07 ×10⁻⁶ cm/s,28.8 ± 5.8%,182 ± 3.2 µM,"COC(=O)[C@]1(C)CCC[C@@]2(C)C3CC[C@]4(O)C[C@@]3(CCC21)[C@@H](O)[C@]4(O)CN[C@H](C)c1ccccc1 (stereo partly drawn) [Compound 7, (4R,6aR,7R,8R,9S,11bS)-Methyl 7,8,9-Trihydroxy-4,11b-dimethyl-8-((((R)-1-phenylethyl)amino)methyl)tetradecahydro-6a,9-methanocyclohepta[a]naphthalene-4-carboxylate]",33.7 ± 0.93%,97.76 ± 0.25%,< 20%,94.56 ± 0.54%,88.05 ± 0.59%,94.56 ± 0.63%,62.8 ± 1.05%,97.69 ± 0.38%,35.8 ± 4.12%,100.5 ± 0.37%,52.9 ± 1.83%,98.14 ± 0.36%,noteworthy selectivity,slightly weaker action,slightly weaker action,
,0.52 ± 0.02 ×10⁻⁶ cm/s,6.5 ± 0.7%,443 ± 35.7 µM,C=C1[C@H](O)[C@@]23CC[C@H]4[C@@](C)(CCC[C@@]4(C)C(=O)O)[C@@H]2CC[C@]1(O)C3 [Compound 2],,,,,,,,,,,,,,,,any notable effect was not detectable
81 to 83 °C,,92.6 ± 1.1%,11.9 ± 1.8 µM,"COC(=O)[C@]1(C)CCC[C@@]2(C)C3CC[C@]4(O)C[C@@]3(CCC21)[C@@H](O)[C@]4(O)CN[C@@H](C)c1ccc2ccccc2c1 (stereo partly drawn) [Compound 13, (4R,6aR,7R,8R,9S,11bS)-Methyl 7,8,9-Trihydroxy-4,11b-dimethyl-8-((((S)-1-(naphthalen-2-yl)ethyl)amino)methyl)tetradecahydro-6a,9-methanocyclohepta[a]naphthalene-4-carboxylate]",94.5 ± 1.24%,94.9 ± 1.29%,93.8 ± 1.81%,93.77 ± 0.41%,93.33 ± 0.29%,93.21 ± 0.46%,95.74 ± 0.64%,95.44 ± 0.85%,72 ± 1.81%,90.5 ± 1.31%,96.64 ± 0.35%,96.79 ± 0.2%,,,,
